Test results reported in US10294218B2 (VIROSTATICS SRL, priority 2012, dated 2019).
Structures can show the parent of a compound that is named as a salt. Where two headings read alike, the source gives them in different places.

Legend:
Primary T cells [1] = assay: Antiproliferative activity (AP), mitotic index by flow cytometry; assay type: cell-based; conditions: read-out: AP50 (Inhibitory concentration 50% for antiproliferative capacity)
Protocol: Primary T cells are cultured and exposed to different concentrations of the test compounds. Cell proliferation is analysed by measuring mitotic index (ie the number of cell divisions a population of cells undergoes) through flow cytometry based techniques. Mitotic index is expressed as percentage of untreated control. Inhibition of cell proliferation (AP) is then calculated (AP=100 minus % mitotic index compared to control, AP of control=0%). Inhibitory concentration 50% for antiproliferative capacity (AP50) is calculated.
(§1) In Tables 2, 3 and 4, ND means Not Determined.

Primary T cells [2] = assay: Cytotoxicity, percentage of viable cells by flow cytometry; assay type: cell-based; conditions: viability
Protocol: Primary T cells are cultured and treated with different concentrations of the test compound. Viability is analysed by measuring through flow cytometry based techniques the percentage of viable cells, compared to untreated control=100%).
as §1

[3] = tested on: laboratory strain of HIV-1; assay: Antiviral activity against HIV (AV), p24 in infected activated primary T cells; assay type: cell-based; conditions: read-out: AV50 (Inhibitory concentration 50% for antiviral activity)
Summary of the method: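 Activated primary T cells infected with a laboratory HIV-1 strain were cultured with a range of compound concentrations. Replication was measured as p24, expressed as a percentage of untreated control, with AV = 100 − % p24. AV50 is the concentration giving 50% antiviral activity.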

[4] = biological target: human CDK9/CyclinT kinase complex (Homo sapiens (Human), UniProt P50750); assay: In vitro CDK9/CyclinT assay (IMAP fluorescent polarization); assay type: biochemical
Sequence of human CDK9/CyclinT kinase complex (P50750 whole entry): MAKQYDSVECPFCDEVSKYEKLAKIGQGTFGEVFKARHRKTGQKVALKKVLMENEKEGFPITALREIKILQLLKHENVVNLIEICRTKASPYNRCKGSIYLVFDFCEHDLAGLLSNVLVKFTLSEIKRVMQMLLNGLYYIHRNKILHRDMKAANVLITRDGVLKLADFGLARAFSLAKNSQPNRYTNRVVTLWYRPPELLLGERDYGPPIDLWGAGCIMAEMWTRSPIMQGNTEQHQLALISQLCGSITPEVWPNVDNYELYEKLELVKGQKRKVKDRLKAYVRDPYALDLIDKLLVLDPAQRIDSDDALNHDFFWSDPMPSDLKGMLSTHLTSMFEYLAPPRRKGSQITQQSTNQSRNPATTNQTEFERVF
Sequence of human CDK9/CyclinT kinase complex (O60563 whole entry partner): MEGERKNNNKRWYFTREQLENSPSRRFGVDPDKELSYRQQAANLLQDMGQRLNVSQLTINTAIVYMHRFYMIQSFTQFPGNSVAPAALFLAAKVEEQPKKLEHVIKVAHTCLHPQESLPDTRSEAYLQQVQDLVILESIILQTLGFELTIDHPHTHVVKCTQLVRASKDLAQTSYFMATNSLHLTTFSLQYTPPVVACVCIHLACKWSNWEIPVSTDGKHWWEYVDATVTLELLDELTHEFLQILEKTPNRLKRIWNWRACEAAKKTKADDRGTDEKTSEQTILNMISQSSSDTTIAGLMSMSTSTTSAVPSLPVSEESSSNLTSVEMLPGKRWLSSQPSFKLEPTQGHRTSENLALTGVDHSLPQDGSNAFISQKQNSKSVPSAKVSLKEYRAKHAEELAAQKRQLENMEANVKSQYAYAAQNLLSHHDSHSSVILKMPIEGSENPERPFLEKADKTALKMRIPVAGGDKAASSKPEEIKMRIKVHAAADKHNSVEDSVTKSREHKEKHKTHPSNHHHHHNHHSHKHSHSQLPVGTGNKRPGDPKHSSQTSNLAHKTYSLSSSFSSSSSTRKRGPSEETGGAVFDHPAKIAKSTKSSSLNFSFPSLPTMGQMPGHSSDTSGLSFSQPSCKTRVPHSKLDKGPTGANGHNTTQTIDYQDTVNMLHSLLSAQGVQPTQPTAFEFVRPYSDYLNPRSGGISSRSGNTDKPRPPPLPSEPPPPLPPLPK
Protocol: The activity of the compounds described in the present invention can be determined by measuring the phosphorylation of a fluorescently-labeled peptide by human CDK9/CyclinT kinase complex by fluorescent polarization using a commercially available IMAP Screening Express Assay Kit (Molecular devices).
Test compounds were diluted in 100% DMSO to 5 mM stock concentration, then further dilutions were made in H2O or 100% DMSO to desirable concentrations.
Each reaction consisted of 5 nM enzyme: CDK9/CyclinT (Proqinase cat#0371-0345-1), 400 nM TAMRA-Rbtide (synthetic 15-mer peptide derived from human retinoblastoma tumor suppressor protein labeled with TAMRA dye, Genecust Europe), 12 μM ATP (=Kmapp, Sigma-Aldrich) and kinase buffer: 20 mM MOPS pH 7 (Sigma-Aldrich), 1 mM DTT (Sigma-Aldrich), 10 mM MgCl2 (Sigma-Aldrich), 0.01% Tween 20 (Sigma-Aldrich).
For each reaction, 4 or 6 μl containing TAMRA-Rbtide, ATP and kinase buffer were combined with 2 μl diluted compound in H2O or 0.028 μl compound in 100% DMSO. The kinase reaction was started by the addition of 2 μl diluted enzyme. The reaction was allowed to run for 1 hour at room temperature. The reaction was stopped by adding 15 μl IMAP beads (1:400 beads in progressive (100% buffer A) 1× buffer).

Structure (SMILES) | TD50 (Toxic dose 50%) (Primary T cells [2]) [µM] | IC50 [4] [nM] | further results
COc1ccc(Nc2cc(-c3ccccc3OC)ncn2)cc1NC(=O)OCC(Cl)(Cl)Cl [Example 27, 2,2,2-Trichloroethyl 2-methoxy-5-(6-(2-methoxyphenyl)pyrimidin-4-ylamino)phenylcarbamate] | >0.5 | – | IC50 (Primary T cells [1]; T-cell): > 500 nM; IC50 ([3]; Human immunodeficiency virus 1, T-cell): > 500 nM
CNCc1cc(Nc2cc(-c3ccccc3OC)ncn2)ccc1OC [Example 37, N-(4-Methoxy-3-((methylamino)methyl)phenyl)-6-(2-methoxyphenyl)pyrimidin-4-amine] | 2 | – | IC50 (Primary T cells [1]; primary T cells, mitotic index): 2000 nM; IC50 ([3]; HIV-1 infected activated primary T cells, p24): > 1500 nM
COc1ccccc1-c1cc(Nc2ccc(N(C)C)c(F)c2)ncn1 [Example 106, 2-Fluoro-N^4-[6-(2-methoxy-phenyl)-pyrimidin-4-yl]-N^1,N^1-dimethyl-benzene-1,4-diamine Hydrochloride] | – | < 1000 | –
COc1ccccc1-c1cc(Nc2ccc(Cl)c(O)c2)ncn1 [Example 107, 2-Chloro-5-[6-(2-methoxy-phenyl)-pyrimidin-4-ylamino]-phenol Hydrochloride] | – | < 1000 | –
